Assay results reported in PMC12667198, “Menthol‐like cooling compounds, including (R)‐(‐)‐carvone, inhibit the human bitter taste receptors for saccharin and acesulfame K” (FEBS Open Bio, 2025).

Molecular target: T1, TAS2R31 (Homo sapiens, UniProt P59538)
T1 construct: pEAK10; transient in HEK293T with chimeric G protein Galpha16gust44 (and mt-apoclytin II reporter)
T1 sequence (P59538 1-309): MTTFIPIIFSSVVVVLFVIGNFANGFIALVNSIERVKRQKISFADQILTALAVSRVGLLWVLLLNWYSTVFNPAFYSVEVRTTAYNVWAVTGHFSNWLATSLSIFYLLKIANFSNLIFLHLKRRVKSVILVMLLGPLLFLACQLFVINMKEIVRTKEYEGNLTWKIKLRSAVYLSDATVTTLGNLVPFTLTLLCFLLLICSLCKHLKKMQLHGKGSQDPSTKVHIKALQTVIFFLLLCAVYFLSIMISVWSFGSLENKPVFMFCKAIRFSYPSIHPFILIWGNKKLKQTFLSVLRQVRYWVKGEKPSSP
Assay: luminescence (mt-apoclytin II) Ca2+ assay, HEK293T
Assay type: cell-based

| SMILES | IC50 [µM] |
| --- | --- |
| CC(C)=C1CC[C@@H](C)CC1=O [(+)‐pulegone] | 290 ± 47 |
| CC(C)[C@@H]1CC[C@@H](C)C[C@H]1O [(−)‐menthol] | 310 ± 58 |
| CC(C)[C@H]1CC[C@H](C)C[C@@H]1O [(+)‐menthol] | 220 ± 15 |
| CC1=CC(=O)[C@@H](C(C)C)CC1 [(R)‐(‐)‐piperitone] | 180 ± 19 |
| C=C(C)[C@@H]1CC=C(C)C(=O)C1 [(R)‐(‐)‐carvone] | 86 |
| CC(C)[C@@H]1CC[C@@H](C)CC1=O [menthone] | 570 ± 100 |
